System: hepatic glycine conjugation
Details: in vivo
Method: The test is carried out in the morning on an empty stomach after an overnight fast.
To equilibrate the body's glycine pool, an oral bolus of 3 g of glycine dissolved in 200 ml of water is given 1 hour prior to tracer administration.
At t=0 min, a weight adjusted dose of [^13C−1]-glycine (eg. 150 mg for 44.5 to 95.2 kg body weight) was given orally. Breath samples are taken subsequently every 10 minutes over a period of 300 minutes.
At t=160 min, a second dose of [^13C−1]-glycine was given, followed by three equal dozes of sodium benzoate (eg. 284.2 mg) at 170, 180 and 190 minutes.
Breath samples are measured for ^13CO2 content above base line, ie. the mean of 3 pre-test samples. Time to peak of ^13CO2 exhalation, ^13CO2 exhalation in percentage of given dose [% dose/hour] and cumulative ^13CO2 exhalation over time are determined. Mathematical modelling of the various curves is used to de-convolute the dose recovery curves of parts A and B.
The breath test consisted of two parts, A and B, that were at first carried out on 2 consecutive days and later combined into an one-day protocol.
Part A; After an overnight fast, subjects were given orally a weight adjusted dose of the tracer ^13C-glycine dissolved in water
Part B: After an, overnight fast, subjects were given orally the same amount of tracer plus an optimised amount of sodium benzoate.
For the one-day protocol, part B commenced 130 min after the start of part A.
Breath samples were collected in 10 min intervals.
10 volunteers (5 women, 5 men) with no medical history of liver problems were used as control group.
9 in-patients (6 women, 3 men) with varying stages of liver failure and different disease etiology were tested. Ethical approval for this ^13CO2-breath test, study was sought and obtained from the Tayside Healthboard Ethics Committee.

`NC[13C](=O)O` [^13C-glycine, [^13C−1]-glycine] was tested, and the “Time to peak PDR in patients compared to the control group” value was “significantly delayed”, the “highest GCa-value (apparent glycine conjugation) in patients” value was 23.26% and the “mean PDRm ratio” value was 0.59.

Source: patent US20040152994A1, “Liver function test” (priority 2001, published 2004)
